Assay results from the supplement of paper PMC10307832.

Assays:
Experiment in all cases: relative viability (nuclei count vs DMSO), 5 days (fraction); higher = more cells survive
[1] = compound: CC(C)(C)c1cc(NC(=O)Nc2ccc(-c3cn4c(n3)sc3cc(OCCN5CCOCC5)ccc34)cc2)no1 [Quizartinib] + CC(=O)Nc1cccc(-n2c(=O)n(C3CC3)c(=O)c3c(Nc4ccc(I)cc4F)n(C)c(=O)c(C)c32)c1 [Trametinib] (partner 0.02 µM)
In short: (§1)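 A single step with final 0.05% Triton X-100, 1% formaldehyde and 1 ug/ml Hoechst fixed the cells and stained nuclei 5 days after treatment. Lung cancer cell lines in 1536-well plates had been treated by pin tool the day after seeding with one drug alone or a fixed anchor-drug dose plus five library-drug doses (not always all listed) in √10 steps, and nuclei were counted on 4× images. Relative viability is the ratio of nuclei in treated wells to nuclei in vehicle wells, taken as the median of duplicate plates.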

[2] = compound: CC(C)(C)c1cc(NC(=O)Nc2ccc(-c3cn4c(n3)sc3cc(OCCN5CCOCC5)ccc34)cc2)no1 [Quizartinib] + C[C@]1(O)C[C@@H](c2nc(-c3ccc4ccc(-c5ccccc5)nc4c3)c3c(N)nccn32)C1 [Linsitinib] (partner 1 µM)
In short: as §1

[3] = compound: CC(C)(C)c1cc(NC(=O)Nc2ccc(-c3cn4c(n3)sc3cc(OCCN5CCOCC5)ccc34)cc2)no1 [Quizartinib] + CC(=O)c1c(C)c2cnc(Nc3ccc(N4CCNCC4)cn3)nc2n(C2CCCC2)c1=O [Palbociclib] (partner 0.5 µM)
In short: as §1

[4] = compound: CC(C)(C)c1cc(NC(=O)Nc2ccc(-c3cn4c(n3)sc3cc(OCCN5CCOCC5)ccc34)cc2)no1 [Quizartinib] + CC1(C)CCC(c2ccc(Cl)cc2)=C(CN2CCN(c3ccc(C(=O)NS(=O)(=O)c4ccc(N[C@H](CCN5CCOCC5)CSc5ccccc5)c(S(=O)(=O)C(F)(F)F)c4)cc3)CC2)C1 [Navitoclax] (partner 0.5 µM)
In short: as §1

## 201T
[1]; first compound 0.001 µM
  relative viability: 0.595
[1]; first compound 0.003162 µM
  relative viability: 0.696
[1]; first compound 0.01 µM
  relative viability: 0.755
[1]; first compound 0.03162 µM
  relative viability: 0.708
[1]; first compound 0.1 µM
  relative viability: 0.742
[2]; first compound 0.001 µM
  relative viability: 1.06
[2]; first compound 0.003162 µM
  relative viability: 1.04
[2]; first compound 0.01 µM
  relative viability: 0.969
[2]; first compound 0.03162 µM
  relative viability: 1.06
[2]; first compound 0.1 µM
  relative viability: 1.11
[3]; first compound 0.001 µM
  relative viability: 0.322
[3]; first compound 0.003162 µM
  relative viability: 0.371
[3]; first compound 0.01 µM
  relative viability: 0.361
[3]; first compound 0.03162 µM
  relative viability: 0.401
[3]; first compound 0.1 µM
  relative viability: 0.401
[4]; first compound 0.001 µM
  relative viability: 1.24
[4]; first compound 0.003162 µM
  relative viability: 1.21
[4]; first compound 0.01 µM
  relative viability: 1.25
[4]; first compound 0.03162 µM
  relative viability: 1.24
[4]; first compound 0.1 µM
  relative viability: 1.25

## A549
[2]; first compound 0.003162 µM
  relative viability: 0.49
[2]; first compound 0.01 µM
  relative viability: 0.61
[2]; first compound 0.03162 µM
  relative viability: 0.611
[2]; first compound 0.1 µM
  relative viability: 0.787
[4]; first compound 0.001 µM
  relative viability: 1.26
[4]; first compound 0.003162 µM
  relative viability: 1.11
[4]; first compound 0.01 µM
  relative viability: 1.25
[4]; first compound 0.1 µM
  relative viability: 1.13

## A-427
[1]; first compound 0.001 µM
  relative viability: 0.517
[1]; first compound 0.003162 µM
  relative viability: 0.691
[1]; first compound 0.01 µM
  relative viability: 0.675
[1]; first compound 0.03162 µM
  relative viability: 0.591
[1]; first compound 0.1 µM
  relative viability: 0.704
[2]; first compound 0.001 µM
  relative viability: 1.04
[2]; first compound 0.003162 µM
  relative viability: 1.08
[2]; first compound 0.01 µM
  relative viability: 1.14
[2]; first compound 0.03162 µM
  relative viability: 1.04
[2]; first compound 0.1 µM
  relative viability: 1.12
[3]; first compound 0.001 µM
  relative viability: 0.425
[3]; first compound 0.003162 µM
  relative viability: 0.48
[3]; first compound 0.01 µM
  relative viability: 0.523
[3]; first compound 0.03162 µM
  relative viability: 0.485
[3]; first compound 0.1 µM
  relative viability: 0.505
[4]; first compound 0.001 µM
  relative viability: 0.94
[4]; first compound 0.003162 µM
  relative viability: 0.881
[4]; first compound 0.01 µM
  relative viability: 0.869
[4]; first compound 0.03162 µM
  relative viability: 0.906
[4]; first compound 0.1 µM
  relative viability: 0.95

## ABC-1
[2]; first compound 0.001 µM
  relative viability: 0.662
[2]; first compound 0.003162 µM
  relative viability: 0.732
[2]; first compound 0.01 µM
  relative viability: 0.702
[2]; first compound 0.03162 µM
  relative viability: 0.675
[2]; first compound 0.1 µM
  relative viability: 0.722
[3]; first compound 0.003162 µM
  relative viability: 0.71
[3]; first compound 0.01 µM
  relative viability: 0.842
[3]; first compound 0.03162 µM
  relative viability: 0.769
[3]; first compound 0.1 µM
  relative viability: 0.823

## BEN
[1]; first compound 0.001 µM
  relative viability: 0.998
[1]; first compound 0.003162 µM
  relative viability: 1.02
[1]; first compound 0.01 µM
  relative viability: 1.19
[1]; first compound 0.03162 µM
  relative viability: 0.925
[1]; first compound 0.1 µM
  relative viability: 1.22
[2]; first compound 0.001 µM
  relative viability: 0.739
[2]; first compound 0.003162 µM
  relative viability: 0.779
[2]; first compound 0.01 µM
  relative viability: 0.903
[2]; first compound 0.03162 µM
  relative viability: 0.815
[2]; first compound 0.1 µM
  relative viability: 0.712
[3]; first compound 0.001 µM
  relative viability: 0.388
[3]; first compound 0.003162 µM
  relative viability: 0.427
[3]; first compound 0.01 µM
  relative viability: 0.544
[3]; first compound 0.03162 µM
  relative viability: 0.472
[3]; first compound 0.1 µM
  relative viability: 0.503
[4]; first compound 0.001 µM
  relative viability: 0.0726
[4]; first compound 0.003162 µM
  relative viability: 0.0683
[4]; first compound 0.01 µM
  relative viability: 0.107
[4]; first compound 0.03162 µM
  relative viability: 0.051
[4]; first compound 0.1 µM
  relative viability: 0.0586

## CAL-12T
[1]; first compound 0.001 µM
  relative viability: 0.371
[1]; first compound 0.003162 µM
  relative viability: 0.371
[1]; first compound 0.01 µM
  relative viability: 0.345
[1]; first compound 0.03162 µM
  relative viability: 0.271
[1]; first compound 0.1 µM
  relative viability: 0.352
[2]; first compound 0.001 µM
  relative viability: 0.744
[2]; first compound 0.003162 µM
  relative viability: 0.771
[2]; first compound 0.01 µM
  relative viability: 0.976
[2]; first compound 0.03162 µM
  relative viability: 0.882
[2]; first compound 0.1 µM
  relative viability: 0.986
[3]; first compound 0.001 µM
  relative viability: 0.362
[3]; first compound 0.003162 µM
  relative viability: 0.404
[3]; first compound 0.01 µM
  relative viability: 0.607
[3]; first compound 0.03162 µM
  relative viability: 0.348
[3]; first compound 0.1 µM
  relative viability: 0.0629
[4]; first compound 0.001 µM
  relative viability: 1.15
[4]; first compound 0.003162 µM
  relative viability: 1.1
[4]; first compound 0.01 µM
  relative viability: 1.33
[4]; first compound 0.03162 µM
  relative viability: 1.24
[4]; first compound 0.1 µM
  relative viability: 1.32

## COR-L23
[1]; first compound 0.001 µM
  relative viability: 0.518
[1]; first compound 0.003162 µM
  relative viability: 0.552
[1]; first compound 0.01 µM
  relative viability: 0.595
[1]; first compound 0.03162 µM
  relative viability: 0.479
[1]; first compound 0.1 µM
  relative viability: 0.543
[2]; first compound 0.001 µM
  relative viability: 0.829
[2]; first compound 0.003162 µM
  relative viability: 0.9
[2]; first compound 0.01 µM
  relative viability: 1.05
[2]; first compound 0.03162 µM
  relative viability: 0.748
[2]; first compound 0.1 µM
  relative viability: 0.92
[3]; first compound 0.001 µM
  relative viability: 0.236
[3]; first compound 0.003162 µM
  relative viability: 0.269
[3]; first compound 0.01 µM
  relative viability: 0.34
[3]; first compound 0.03162 µM
  relative viability: 0.244
[3]; first compound 0.1 µM
  relative viability: 0.244
[4]; first compound 0.001 µM
  relative viability: 1.01
[4]; first compound 0.003162 µM
  relative viability: 0.968
[4]; first compound 0.01 µM
  relative viability: 1.02
[4]; first compound 0.03162 µM
  relative viability: 0.875
[4]; first compound 0.1 µM
  relative viability: 1.03

## COR-L 105
[1]; first compound 0.001 µM
  relative viability: 0.449
[1]; first compound 0.003162 µM
  relative viability: 0.445
[1]; first compound 0.01 µM
  relative viability: 0.507
[1]; first compound 0.1 µM
  relative viability: 0.516
[2]; first compound 0.001 µM
  relative viability: 0.704
[2]; first compound 0.003162 µM
  relative viability: 0.846
[2]; first compound 0.01 µM
  relative viability: 1.23
[2]; first compound 0.03162 µM
  relative viability: 0.733
[2]; first compound 0.1 µM
  relative viability: 0.95
[3]; first compound 0.001 µM
  relative viability: 0.395
[3]; first compound 0.003162 µM
  relative viability: 0.397
[3]; first compound 0.01 µM
  relative viability: 0.396
[3]; first compound 0.1 µM
  relative viability: 0.418
[4]; first compound 0.001 µM
  relative viability: 0.536
[4]; first compound 0.003162 µM
  relative viability: 0.71
[4]; first compound 0.01 µM
  relative viability: 0.907
[4]; first compound 0.03162 µM
  relative viability: 0.651
[4]; first compound 0.1 µM
  relative viability: 0.729

## Calu-6
[2]; first compound 0.001 µM
  relative viability: 0.975
[2]; first compound 0.003162 µM
  relative viability: 0.884
[2]; first compound 0.01 µM
  relative viability: 0.944
[2]; first compound 0.03162 µM
  relative viability: 0.959
[2]; first compound 0.1 µM
  relative viability: 0.883
[4]; first compound 0.001 µM
  relative viability: 0.749
[4]; first compound 0.003162 µM
  relative viability: 0.877
[4]; first compound 0.01 µM
  relative viability: 0.923
[4]; first compound 0.03162 µM
  relative viability: 0.701
[4]; first compound 0.1 µM
  relative viability: 0.759

## ChaGo-K-1
[1]; first compound 0.003162 µM
  relative viability: 0.881
[1]; first compound 0.01 µM
  relative viability: 0.889
[1]; first compound 0.03162 µM
  relative viability: 0.9
[1]; first compound 0.1 µM
  relative viability: 0.865
[3]; first compound 0.003162 µM
  relative viability: 0.922
[3]; first compound 0.01 µM
  relative viability: 0.918
[3]; first compound 0.03162 µM
  relative viability: 0.949
[3]; first compound 0.1 µM
  relative viability: 0.904
[4]; first compound 0.001 µM
  relative viability: 0.439
[4]; first compound 0.003162 µM
  relative viability: 1.02
[4]; first compound 0.01 µM
  relative viability: 1.02
[4]; first compound 0.1 µM
  relative viability: 1.52
